Experimental findings from patent US7629340B2, “N-(6-membered aromatic ring)-amido anti-viral compounds” (SmithKline Beecham Corporation, priority 2005, dated 2009) are described below.

This assay in a line: Replicon Assay (luciferase, ET cell line). The class given is cell-based, HCV. The following applies: Hepatitis C virus; % inhibition of replication relative to no compound control, test concentration of 10 μM; ET cells, luciferase read 48-72 hours; read-out: % inhib at 10 uM. On the procedure: A cell line, ET (Huh-lucubineo-ET) was used for screening of compounds of the present invention for HCV RNA dependent RNA polymerase. The ET cell line was stably transfected with RNA transcripts harboring a I389luc-ubi-neo/NS3-3′/ET; replicon with firefly luciferase-ubiquitin-neomycin phosphotransferase fusion protein and EMCV-IRES driven NS3-5B polyprotein containing the cell culture adaptive mutations (E1202G; T1280I; K1846T) (Krieger at al, 2001 and unpublished). The ET cells were grown in DMEM, supplemented with 10% fetal calf serum, 2 mM Glutamine, Penicillin (100 IU/mL)/Stretomycin (100 μg/mL), 1× nonessential amino acids, and 250 μg/mL G418 (“Geneticin”). They were all available through Life Technologies (Bethesda, Md.). The cells were plated at 0.5−1.0×10^4 cells/well in the 96 well plates and incubated for 24 hrs before adding nucleoside analogs. […] Luciferase activity were measured 48-72 hours later by adding a lysis buffer and the substrate (Catalog number Glo-lysis buffer E2661 and Bright-Glo luciferase system E2620 Promega, Madison, Wis.). Cells should not be too confluent during the assay. Percent inhibition of replication was plotted relative to no compound control. Under the same condition, cytotoxicity of the compounds was determined using cell proliferation reagent, WST-1 (Roche, Germany). The compounds showing antiviral activities, but no significant cytotoxicities were chosen to determine IC50 and TC50. For these determinations, 10 concentration of each compound were used. Concentrations for test compounds typically span a range of 500 fold. IC50 and TC50 values were calculated by fitting % inhibition at each concentration (I) to the following equation: % inhibition=100%/[1+10^(log IC50−log(I))*b] where b is Hill's coefficient.
On the technique in general: Replicon systems follow genome replication, usually without infectious particles.

Take `O=C(Nc1ccc(-c2ccccc2)cc1)[C@@H]1CCCN1C(=O)OCc1ccccc1` [Compound 6035, 2-(Biphenyl-4-ylcarbamoyl)-pyrrolidine-1-carboxylic acid benzyl ester]: the inhibition at 10 µM came to 42.5%.

Consider `CC(=O)Nc1ccc(-c2cccc(NC(=O)[C@@H]3CCCN3C(=O)OCc3ccccc3)c2)cc1` [Compound 6056, 2-(4′-Acetylamino-biphenyl-3-ylcarbamoyl)-pyrrolidine-1-carboxylic acid benzyl ester], for which the inhibition at 10 µM stood at 80.8%.

Turning to `COc1cccc(OC)c1-c1ccc(NC(=O)[C@@H]2CCCN2C(=O)OCc2ccccc2)cc1` [Compound 6036, 2-(2′,6′-Dimethoxy-biphenyl-4-ylcarbamoyl)-pyrrolidine-1-carboxylic acid benzyl ester], the inhibition at 10 µM was 22.9%.

As to `O=C(Nc1cccc(-c2ccc3ccccc3c2)c1)[C@@H]1CCCN1C(=O)OCc1ccccc1` [Compound 6044, 2-(3-Naphthalen-2-yl-phenylcarbamoyl)-pyrrolidine-1-carboxylic acid benzyl ester], the inhibition at 10 µM came to 73.2%.

As to `COc1ccc(-c2cccc(NC(=O)[C@@H]3CCCN3C(=O)OCc3ccccc3)c2)cc1` [Compound 6037, 2-(4′-Methoxybiphenyl-3-yl-carbamoyl)-pyrrolidine-1-carboxylic acid benzyl ester], the inhibition at 10 µM amounted to 8.6%.

In the case of `O=C(Nc1cccc(-c2cccc3[nH]ccc23)c1)[C@@H]1CCCN1C(=O)OCc1ccccc1` [Compound 6082, 2-[3-(1H-Indol-4-yl)-phenylcarbamoyl]-pyrrolidine-1-carboxylic acid benzyl ester], the inhibition at 10 µM is 97.4%.

On to `O=C(Nc1cccc(S(=O)(=O)c2ccccc2)c1)[C@@H]1CCCN1C(=O)OCc1ccccc1` [Compound 6013, 2-(3-Benzenesulfonyl-phenylcarbamoyl)-pyrrolidine-1-carboxylic acid benzyl ester], for which the inhibition at 10 µM was 32.5%.

With `O=C(Nc1cc(Oc2ccc3oc4c(c3c2)CCCC4)cc([N+](=O)[O-])c1)[C@@H]1CCCN1C(=O)OCc1ccccc1` [Compound 6032, 2-[3-Nitro-5-(6,7,8,9-tetrahydro-dibenzofuran-2-yloxy)-phenylcarbamoyl]-pyrrolidine-1-carboxylic acid benzyl ester], the inhibition at 10 µM amounted to 44.5%.

Take `O=C(Nc1ccc(NS(=O)(=O)c2ccccc2)cc1)[C@@H]1CCCN1C(=O)OCc1ccccc1` [Compound 6002, 2-(4-Benzenesulfonylamino-phenylcarbamoyl)-pyrrolidine-1-carboxylic acid benzyl ester]: the inhibition at 10 µM turned out to be 2.69%.

Regarding `COc1ccc(-c2ccc(NC(=O)[C@@H]3CCCN3C(=O)OCc3ccccc3)cc2)c(OC)c1` [Compound 6001, 2-(2′,4′-Dimethoxy-biphenyl-4-ylcarbamoyl)-pyrrolidine-1-carboxylic acid benzyl ester], the inhibition at 10 µM was found to be 87.8%.

Regarding `O=C(Nc1ccc(-c2ccc3[nH]ccc3c2)cc1)[C@@H]1CCCN1C(=O)OCc1ccccc1` [Compound 6009, 2-[4-(1H-Indol-5-yl)-phenylcarbamoyl]-pyrrolidine-1-carboxylic acid benzyl ester], the inhibition at 10 µM was determined as 83.3%.

Consider `Cn1ccc2cc(-c3cccc(NC(=O)[C@@H]4CCCN4C(=O)OCc4ccccc4)c3)ccc21` [Compound 6051, 2-[3-(1-Methyl-1H-indol-5-yl)-phenylcarbamoyl]-pyrrolidine-1-carboxylic acid benzyl ester], for which the inhibition at 10 µM came out at 68.8%.

Consider `O=C(NC1CC1)c1ccc(NC(=O)[C@@H]2CCCN2C(=O)OCc2ccccc2)cc1` [Compound 6305, 2-(4-Cyclopropylcarbamoyl-phenylcarbamoyl)-pyrrolidine-1-carboxylic acid benzyl ester], for which the inhibition at 10 µM came to 88.2%.

For the molecule `COc1ccc(-c2cccc(NC(=O)[C@@H]3CCCN3C(=O)OCc3ccccc3)c2)cc1OC` [Compound 6029, 2-(3′,4′-Dimethoxybiphenyl-3-yl-carbamoyl)-pyrrolidine-1-carboxylic acid benzyl ester], the inhibition at 10 µM worked out at 3.08%.

For `CC1CCN(S(=O)(=O)c2ccc(NC(=O)[C@@H]3CCCN3C(=O)OCc3ccccc3)cc2)CC1` [Compound 6003, 2-[4-(4-Methyl-piperidine-1-sulfonyl)-phenylcarbamoyl]-pyrrolidine-1-carboxylic acid benzyl ester], the inhibition at 10 µM is 1.21%.

For `O=C(NCc1ccc(-c2cccc(NC(=O)[C@@H]3CCCN3C(=O)OCc3ccccc3)c2)cc1)C1CC1` [Compound 6308, 2-{4′-[(Cyclopropanecarbonyl-amino)-methyl]-biphenyl-3-ylcarbamoyl}-pyrrolidine-1-carboxylic acid benzyl ester], the inhibition at 10 µM is 56.2%.

With `CC(=O)Nc1cccc(-c2cccc(NC(=O)[C@@H]3CCCN3C(=O)OCc3ccccc3)c2)c1` [Compound 6057, 2-(3′-Acetylamino-biphenyl-3-ylcarbamoyl)-pyrrolidine-1-carboxylic acid benzyl ester], the inhibition at 10 µM worked out at 61.7%.

Turning to `N#Cc1cccc(-c2cccc(NC(=O)[C@@H]3CCCN3C(=O)OCc3ccccc3)c2)c1` [Compound 6307, 2-(3′-Cyano-biphenyl-3-ylcarbamoyl)-pyrrolidine-1-carboxylic acid benzyl ester], the inhibition at 10 µM came to 32.3%.

As for `CC(=O)c1cccc(-c2cccc(NC(=O)[C@@H]3CCCN3C(=O)OCc3ccccc3)c2)c1` [Compound 6087, 2-(3′-Acetyl-biphenyl-3-ylcarbamoyl)-pyrrolidine-1-carboxylic acid benzyl ester], the inhibition at 10 µM amounted to 78.9%.

As to `O=C(O)/C=C/c1ccc(-c2cccc(NC(=O)[C@@H]3CCCN3C(=O)OCc3ccccc3)c2)cc1` [Compound 6055, 2-[4′-(2-Carboxy-vinyl)-biphenyl-3-ylcarbamoyl]-pyrrolidine-1-carboxylic acid benzyl ester], the inhibition at 10 µM stood at 40.9%.

In the case of `CN(C)c1ccc(-c2cccc(NC(=O)[C@@H]3CCCN3C(=O)OCc3ccccc3)c2)cc1` [Compound 6045, 2-(4′-Dimethylamino-biphenyl-3-ylcarbamoyl)-pyrrolidine-1-carboxylic acid benzyl ester], the inhibition at 10 µM was found to be 15.7%.

As to `COc1ccc2nc(NC(=O)c3ccc(NC(=O)[C@@H]4CCCN4C(=O)OCc4ccccc4)cc3)sc2c1` [Compound 6030, 2-[4-(6-Methoxy-benzothiazol-2-ylcarbamoyl)-phenylcarbamoyl]-pyrrolidine-1-carboxylic acid benzyl ester], the inhibition at 10 µM came to 42.2%.

With `O=C(Nc1cc(Oc2ccccc2)cc(Oc2cccnc2)c1)[C@@H]1CCCN1C(=O)OCc1ccccc1` [Compound 6024, 2-[3-Phenoxy-5-(pyridin-3-yloxy)-phenylcarbamoyl]-pyrrolidine-1-carboxylic acid benzyl ester], the inhibition at 10 µM turned out to be 98.1%.

Take `O=C(Nc1cccc(-c2cccc(O)c2)c1)[C@@H]1CCCN1C(=O)OCc1ccccc1` [Compound 6092, 2-(3′-Hydroxy-biphenyl-3-ylcarbamoyl)-pyrrolidine-1-carboxylic acid benzyl ester]: the inhibition at 10 µM stood at 95.3%.

Consider `Cc1cccc(Oc2cc(NC(=O)[C@@H]3CCCN3C(=O)OCc3ccccc3)cc([N+](=O)[O-])c2)c1` (stereo in doubt) [Compound 6039, 2-(3-Nitro-5-m-tolyloxy-phenylcarbamoyl)-pyrrolidine-1-carboxylic acid benzyl ester], for which the inhibition at 10 µM turned out to be 33.8%.
